Measurements: patent publication US8765802B2, “Kinase inhibitors, compositions thereof, and methods of use therewith” (Provid Pharmaceuticals, Inc., priority 2007, dated 2014)

Biological target: T1, Chk2 (Homo sapiens, UniProt O96017)
T1 construct: made in house; host or cells: E. coli BL21 Star (Invitrogen)
Assay: Chk2 inhibitor IMAP assay (high-throughput Chk2 screening assay)
Format: biochemical
Settings: IMAP fluorescence polarization assay, 10 μM ATP
Experimental: Compounds set forth in Table 1 were tested in the Chk2 inhibitor IMAP assay described herein in Example 6.84. […] The letters given for the Chk2 EC50 values in Table 1 represent the following ranges: A=<100 nM; B=100-300 nM; C=300-1000 nM; D=1-10 μM; and E>10 μM.
Compounds can be screened for Chk2 inhibitory activity using a high-throughput screening assay based in the immobilized metal ion affinity-based fluorescence polarization (IMAP) assay developed by Molecular Devices. This assay is based on the high affinity binding of phosphate by immobilized metal (MIII) coordination complexes on nanoparticles. A fluorescein-labeled peptide substrate is used as the substrate for the kinase activity of Chk2 in the assay. The IMAP binding reagent stops the kinase reaction. The binding of the binding reagent results in a change in the rate of molecular motion of the peptide and causes an increase in the fluorescence polarization value observed for the fluorescein label attached to the end of the peptide. Thus, inhibition of Chk2 would result in a decrease in fluorescence polarization compared to control.
A specific protocol for screening Compounds for Chk2 inhibitory activity follows.
A Compound is supplied at 1 mM in 0.5 μl DMSO on 384 well plates (such as Greiner or Corning). After thawing, 5 μl DMSO is added to the drug plate. The drug plate is then incubated for 10 minutes to solubilize the Compound. An additional 19.5 μl of reaction buffer (10× stock prepared using 100 mM Tris-HCl, 100 mM MgCl2, 1% BSA, pH 7.2, stored at 4° C.)+1 mM DDT is added to bring the Compound to 4× final concentration. A positive control is also prepared at 4× final concentration. The following control wells are used: less enzyme control (all reagents except enzyme; 5 μl/well), less Compound control (all reagents except Compound; 5 μl/well), positive control (all reagents plus staurosporine at a final concentration of 5 μM; 5 μl/well).
Reagents are then added in the following order to give the following final concentration: 2.5 μl ATP/Chk2tide (Molecular Devices) (10 μM/100 nM final concentration), 1.25 μl Compound (5 μM final concentration inf 5.5% DMSO), and 1.25 μl Chk2 (1:500, 2.4 μg/mL final concentration).
Plates are covered and incubated at room temperature for 60 minutes.
IMAP binding reagent (Molecular Devices) is diluted 1:400 into binding buffer (Molecular Devices). 15 μl of this solution is then added to all wells and the plates are covered and incubated for 30 minutes.
Plates are read using a Tecan Ultra under the fluorescence polarization mode. Gain is set to the less enzyme and less Compound wells for each plate. Excitation 485 nm, emmission 535 nm, Z position 12519 and flashes 5 are used as settings. Raw data from the Tecan reader is imported into an access database for analysis.

T1 sequence (O96017 whole entry): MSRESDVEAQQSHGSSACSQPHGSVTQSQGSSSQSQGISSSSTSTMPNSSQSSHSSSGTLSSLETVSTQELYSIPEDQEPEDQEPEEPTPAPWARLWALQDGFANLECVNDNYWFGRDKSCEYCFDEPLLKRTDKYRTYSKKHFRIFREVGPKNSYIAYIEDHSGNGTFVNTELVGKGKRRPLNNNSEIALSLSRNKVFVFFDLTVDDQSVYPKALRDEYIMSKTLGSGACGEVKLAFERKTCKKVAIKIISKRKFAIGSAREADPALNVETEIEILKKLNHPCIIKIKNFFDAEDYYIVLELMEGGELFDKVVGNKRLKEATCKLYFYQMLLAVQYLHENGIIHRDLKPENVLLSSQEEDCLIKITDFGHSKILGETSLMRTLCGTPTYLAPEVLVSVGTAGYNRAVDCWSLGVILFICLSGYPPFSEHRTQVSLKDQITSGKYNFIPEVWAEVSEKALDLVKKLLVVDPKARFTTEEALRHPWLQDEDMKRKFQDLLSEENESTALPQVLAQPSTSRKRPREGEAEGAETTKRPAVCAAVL

Row | Structure (SMILES) | EC50 [nM]
1 | CCC/C(=N/NC(=N)N)c1ccc(NC(=O)c2cc3cc(OC)ccc3[nH]2)cc1 (single isomer, unassigned) [Compound 24] | < 100
2 | CCC/C(=N/NC(=N)N)c1ccc(NC(=O)c2cc3cc(OC)ccc3[nH]2)cc1 (single isomer, unassigned) [Compound 26] | 300 to 1000
3 | CCCC(=NNC(=N)N)c1ccc2[nH]c(C(=O)Nc3ccc4cc[nH]c4c3)cc2c1 (single isomer, unassigned) [Compound 112] | < 100
4 | CCCC(=NNC(=N)N)c1ccc2[nH]c(C(=O)Nc3ccc4cc[nH]c4c3)cc2c1 (single isomer, unassigned) [Compound 113] | 300 to 1000
5 | CC(C)CC(=NNC(=N)N)c1ccc2[nH]c(C(=O)Nc3ccc4cc[nH]c4c3)cc2c1 (single isomer, unassigned) [Compound 123] | < 100
6 | CC(C)CC(=NNC(=N)N)c1ccc2[nH]c(C(=O)Nc3ccc4cc[nH]c4c3)cc2c1 (single isomer, unassigned) [Compound 124] | 1000 to 10000
7 | CCC/C(=N\NC(=N)N)c1ccc(NC(=O)Nc2ccc(/C(C)=N/NC(=N)N)cc2)cc1 [Compound 1] | < 100
8 | C/C(=N\NC(=N)N)c1ccc(NC(=O)c2c[nH]c3ccccc23)cc1 [Compound 2] | 1000 to 10000
9 | CCCC(=NNC(=N)N)c1ccc(NC(=O)Nc2ccc(C(CCC)=NNC(=N)N)cc2)cc1 [Compound 3] | < 100
10 | C/C(=N\NC(=N)N)c1ccc(NC(=O)Nc2ccc(/C(C)=N/NC(=N)N)c(C)c2)cc1 [Compound 4] | 100 to 300
11 | CC(=NNC(=N)N)c1ccc(NC(=O)Nc2ccc3c(c2)CCC(C)C3=NNC(=N)N)cc1 (centres unmarked) [Compound 5] | 300 to 1000
12 | CC(=NNC(=N)N)c1ccc(NC(=O)Nc2ccc3c(c2)CCC3=NNC(=N)N)cc1 [Compound 6] | 300 to 1000
13 | C/C(=N\NC(=N)N)c1ccc(NC(=O)c2cc3ccccc3[nH]2)cc1 [Compound 7] | 300 to 1000
14 | C/C(=N\NC(=N)N)c1ccc(NC(=O)c2cc3ccccc3o2)cc1 [Compound 8] | 300 to 1000
15 | C/C(=N\NC(=N)N)c1ccc(NC(=O)c2cc3cc(C)ccc3[nH]2)cc1 [Compound 9] | 100 to 300
16 | COc1ccc2[nH]c(C(=O)Nc3ccc(/C(C)=N/NC(=N)N)cc3)cc2c1 [Compound 10] | < 100
17 | C/C(=N\NC(=N)N)c1ccc(NC(=O)c2cc3cc(O)ccc3[nH]2)cc1 [Compound 11] | 300 to 1000
18 | C/C(=N/NC(=N)N)c1ccc(NC(=O)Nc2ccc(NC(=O)/C(C)=N/NC(=N)N)cc2)cc1 [Compound 12] | 300 to 1000
19 | C/C(=N/N=C(\N)c1ccccn1)c1ccc(NC(=O)Nc2ccc(/C(C)=N/N=C(\N)c3ccccn3)cc2)cc1 [Compound 13] | 300 to 1000

Row | Structure (SMILES) | EC50 [nM]
20 | C/C(=N/NC(=N)N)c1ccc(NC(=O)Nc2ccc(/C(C)=N/N=C(\N)c3ccccn3)cc2)cc1 [Compound 14] | 300 to 1000
21 | C/C(=N\NC1=NCCN1)c1ccc(NC(=O)Nc2ccc(/C(C)=N/NC3=NCCN3)cc2)cc1 [Compound 15] | < 100
22 | C/C(=N\NC(=N)N)c1ccc(NC(=O)Nc2ccc(/C(C)=N/NC3=NCCN3)cc2)cc1 [Compound 16] | < 100
23 | C/C(=N\NC(=N)N)c1ccc(NC(=O)c2cc3cc(/C(C)=N/NC(=N)N)ccc3[nH]2)cc1 [Compound 17] | < 100
24 | COc1ccc2[nH]c(C(=O)Nc3ccc(/C(C)=N/NC4=NCCN4)cc3)cc2c1 [Compound 19] | 100 to 300
25 | C/C(=N\NC(=N)N)c1ccc(NC(=O)Nc2ccc(C#N)cc2)cc1 [Compound 20] | < 100
26 | CNC(=O)Oc1ccc2[nH]c(C(=O)Nc3ccc(/C(C)=N\NC(=N)N)cc3)cc2c1 [Compound 21] | 100 to 300
27 | C/C(=N\NC1=NCCN1)c1ccc(NC(=O)c2cc3cccc([N+](=O)[O-])c3[nH]2)cc1 [Compound 22] | < 100
28 | COc1ccc2[nH]c(C(=O)Nc3ccc(/C(C)=N/NC4=NCCN4)cc3)cc2c1 [Compound 23] | < 100
29 | C/C(=N\NC(=N)N)c1ccc(NC(=O)c2cc3cc(N)ccc3[nH]2)cc1 [Compound 25] | 300 to 1000
30 | C/C(=N\NC(=N)N)c1ccc(NC(=O)c2cc3cc(C(N)=O)ccc3[nH]2)cc1 [Compound 27] | 100 to 300
31 | COc1cc2cc(C(=O)Nc3ccc(/C(C)=N/NC(=N)N)cc3)[nH]c2cc1OCc1ccccc1 [Compound 29] | 1000 to 10000
32 | C/C(=N/NC(=N)N)c1ccc(NC(=O)c2[nH]c3ccccc3c2Br)cc1 [Compound 30] | 300 to 1000
33 | COc1cccc2cc(C(=O)Nc3ccc(/C(C)=N/NC(=N)N)cc3)oc12 [Compound 31] | 300 to 1000
34 | C/C(=N\NC(=N)N)c1ccc(NC(=O)c2cc3cc(Br)ccc3o2)cc1 [Compound 32] | 1000 to 10000
35 | C/C(=N/NC(=N)N)c1ccc(NC(=O)c2cc3cc(OC(F)(F)F)ccc3[nH]2)cc1 [Compound 33] | 1000 to 10000
36 | C/C(=N/NC(=N)N)c1ccc(NC(=O)c2cc3cc(OCc4ccccc4)ccc3[nH]2)cc1 [Compound 34] | 1000 to 10000
37 | CC(=NNC(=N)N)c1ccc(NC(=O)c2cc3cc([N+](=O)[O-])ccc3[nH]2)cc1 [Compound 35] | > 10000
38 | CC(=O)c1ccc(NC(=O)Nc2ccc(/C(C)=N/NC(=N)N)cc2)cc1 [Compound 36] | 100 to 300

Row | Structure (SMILES) | EC50 [nM]
39 | C/C(=N\NC(=N)N)c1ccc(NC(=O)Nc2ccc(Br)cc2)cc1 [Compound 37] | 100 to 300
40 | C/C(=N\NC(=N)N)c1ccc(NC(=O)Nc2ccc(I)cc2)cc1 [Compound 38] | 300 to 1000
41 | C/C(=N\NC(=N)N)c1ccc(NC(=O)Nc2ccc(NC(=O)Nc3ccc(/C(C)=N/NC(=N)N)cc3)cc2)cc1 [Compound 39] | < 100
42 | COc1cc(OC)c2cc(C(=O)Nc3ccc(/C(C)=N/NC(=N)N)cc3)[nH]c2c1 [Compound 40] | 1000 to 10000
43 | COc1ccc2[nH]nc(C(=O)Nc3ccc(/C(C)=N/NC(=N)N)cc3)c2c1 [Compound 41] | 1000 to 10000
44 | COc1ccc2[nH]nc(C(=O)Nc3ccc(/C(C)=N/NC(=N)N)cc3)c2c1 [Compound 42] | > 10000
45 | COc1ccc2nc(NC(=O)c3ccc(/C(C)=N/NC(=N)N)cc3)sc2c1 [Compound 43] | 1000 to 10000
46 | COc1cccc2sc(NC(=O)c3ccc(/C(C)=N\NC(=N)N)cc3)nc12 [Compound 44] | > 10000
47 | COc1cc2nc(NC(=O)c3ccc(/C(C)=N\NC(=N)N)cc3)sc2cc1OC [Compound 45] | 1000 to 10000
48 | COc1cc2nc(NC(=O)c3ccc(/C(C)=N/NC(=N)N)cc3)sc2cc1OC [Compound 46] | 1000 to 10000
49 | C/C(=N\NC(=N)N)c1ccc(NC(=O)c2ccc(-c3cnc(N)nc3)cc2)cc1 [Compound 47] | 300 to 1000
50 | C/C(=N\NC(=N)N)c1ccc(NC(=O)Nc2ccc(-c3csc(NN)n3)cc2)cc1 [Compound 48] | > 10000
51 | C/C(=N\NC(=N)N)c1ccc2[nH]c(C(=O)Nc3ccc(N4CCNCC4)cc3)cc2c1 [Compound 49] | 100 to 300
52 | C/C(=N\NC(=N)N)c1ccc(NC(=O)Nc2ccc(C)cc2)cc1 [Compound 50] | 1000 to 10000
53 | C/C(=N\NC(=N)N)c1ccc(NC(=O)Nc2ccc(/C(=N/NC(=N)N)C(C)C)cc2)cc1 [Compound 51] | 1000 to 10000
54 | C/C(=N\NC(=N)N)c1ccc(NC(=O)c2cc3ccccc3o2)cc1 [Compound 52] | 1000 to 10000
55 | CC/C(=N\NC(=N)N)c1ccc(NC(=O)c2ccco2)cc1 [Compound 53] | 1000 to 10000
56 | C/C(=N\NC(=N)N)c1ccc(NC(=O)Nc2ccc(/C(=N/NC(=N)N)c3ccccc3)cc2)cc1 [Compound 54] | 1000 to 10000
